# Laboratory results published in ChEMBL document CHEMBL3885861, “Open TG-GATES”.
# Species: Rattus norvegicus
# Test: Open TG-GATES - Regimen: Single
# Format: toxicity, organism-based, Sprague-Dawley
# Parameters: regimen Single, gender Male, age 6 weeks
# Conditions: in vivo, po, 10 mg/kg, route gavage, dose level Low; for APTT / Bas / Eos / Fbg / Hb / Ht / Lym / MCH / MCHC / MCV / Mono / Neu / PT / Plat / RBC / Ret / WBC: tissue Blood; for KIDNEY_L / KIDNEY_R / KIDNEY_TOTAL: tissue Kidney; for LIVER: tissue Liver; for A/G / ALP / ALT / AST / BUN / CRE / Ca / Cl / DBIL / GLC / IP / K / LDH / Na / PL / RALB / TBIL / TC / TG / TP / gamma-GTP: tissue Plasma
smiles,measurement,setting,value
CC1=C(/C=C/C(C)=C/C=C/C(C)=C/CO)C(C)(C)CCC1 [RETINOL],TERMINAL_BW,3 h,201.8 g
same,APTT,3 h,21.9 s
same,Bas,3 h,0%
same,Eos,3 h,0.8%
same,Fbg,3 h,307.4 mg/dL
same,Hb,3 h,13.1 g/dL
same,Ht,3 h,37.7%
same,Lym,3 h,81.4%
same,MCH,3 h,21.5 pg
same,MCHC,3 h,34.6%
same,MCV,3 h,62.2 fL
same,Mono,3 h,2.6%
same,Neu,3 h,14.8%
same,PT,3 h,15.9 s
same,Plat,3 h,124.2 x10_4/uL
same,RBC,3 h,606.4 x10_4/ul
same,Ret,3 h,8.8%
same,WBC,3 h,95.9 x10_2/uL
same,KIDNEY_L,3 h,0.9 g
same,KIDNEY_R,3 h,0.9 g
same,KIDNEY_TOTAL,3 h,1.8 g
same,LIVER,3 h,9.3 g
same,A/G,3 h,1.3
same,ALP,3 h,1940 IU/L
same,ALT,3 h,41.2 IU/L
same,AST,3 h,75.2 IU/L
same,BUN,3 h,13.4 mg/dL
same,CRE,3 h,0.1 mg/dL
same,Ca,3 h,10.8 mg/dL
same,Cl,3 h,106.6 meq/L
same,DBIL,3 h,0 mg/dL
same,GLC,3 h,171.6 mg/dL
same,IP,3 h,8.6 mg/dL
same,K,3 h,4.1 meq/L
same,LDH,3 h,253.6 IU/L
same,Na,3 h,141.6 meq/L
same,PL,3 h,160.6 mg/dL
same,RALB,3 h,3.2 g/dL
same,TBIL,3 h,0.006 mg/dL
same,TC,3 h,81.2 mg/dL
same,TG,3 h,123.4 mg/dL
same,TP,3 h,5.6 g/dL
same,gamma-GTP,3 h,2.2 IU/L
same,TERMINAL_BW,6 h,200 g
same,APTT,6 h,21 s
same,Bas,6 h,0%
same,Eos,6 h,1%
same,Fbg,6 h,312 mg/dL
same,Hb,6 h,13.5 g/dL
same,Ht,6 h,39.4%
same,Lym,6 h,80.4%
same,MCH,6 h,21.4 pg
same,MCHC,6 h,34.3%
same,MCV,6 h,62.3 fL
same,Mono,6 h,2.6%
same,Neu,6 h,15.4%
same,PT,6 h,15.6 s
same,Plat,6 h,119.1 x10_4/uL
same,RBC,6 h,632.2 x10_4/ul
same,Ret,6 h,8.1%
same,WBC,6 h,81.2 x10_2/uL
same,KIDNEY_L,6 h,0.9 g
same,KIDNEY_R,6 h,0.9 g
same,KIDNEY_TOTAL,6 h,1.9 g
same,LIVER,6 h,8.6 g
same,A/G,6 h,1.3
same,ALP,6 h,1760 IU/L
same,ALT,6 h,35.8 IU/L
same,AST,6 h,69.2 IU/L
same,BUN,6 h,9.4 mg/dL
same,CRE,6 h,0.1 mg/dL
same,Ca,6 h,11 mg/dL
same,Cl,6 h,107.4 meq/L
same,DBIL,6 h,0.008 mg/dL
same,GLC,6 h,180 mg/dL
same,IP,6 h,10.3 mg/dL
same,K,6 h,4.3 meq/L
same,LDH,6 h,223 IU/L
same,Na,6 h,142.8 meq/L
same,PL,6 h,143.8 mg/dL
same,RALB,6 h,3.1 g/dL
same,TBIL,6 h,0.016 mg/dL
same,TC,6 h,74.4 mg/dL
same,TG,6 h,98.4 mg/dL
same,TP,6 h,5.4 g/dL
same,gamma-GTP,6 h,0.8 IU/L
same,TERMINAL_BW,9 h,196.8 g
same,APTT,9 h,21.8 s
same,Bas,9 h,0%
same,Eos,9 h,0.6%
same,Fbg,9 h,296.8 mg/dL
same,Hb,9 h,13.2 g/dL
same,Ht,9 h,38.3%
same,Lym,9 h,78%
same,MCH,9 h,21.6 pg
same,MCHC,9 h,34.4%
same,MCV,9 h,62.9 fL
same,Mono,9 h,2.4%
same,Neu,9 h,18.4%
same,PT,9 h,15.6 s
same,Plat,9 h,128.6 x10_4/uL
same,RBC,9 h,610.2 x10_4/ul
same,Ret,9 h,7.6%
same,WBC,9 h,92.3 x10_2/uL
same,KIDNEY_L,9 h,0.9 g
same,KIDNEY_R,9 h,0.9 g
same,KIDNEY_TOTAL,9 h,1.8 g
same,LIVER,9 h,7.8 g
same,A/G,9 h,1.3
same,ALP,9 h,1939.6 IU/L
same,ALT,9 h,34.8 IU/L
same,AST,9 h,70.6 IU/L
same,BUN,9 h,9.6 mg/dL
same,CRE,9 h,0.1 mg/dL
same,Ca,9 h,10.9 mg/dL
same,Cl,9 h,107.4 meq/L
same,DBIL,9 h,0.004 mg/dL
same,GLC,9 h,187 mg/dL
same,IP,9 h,10.6 mg/dL
same,K,9 h,4 meq/L
same,LDH,9 h,242.8 IU/L
same,Na,9 h,141.4 meq/L
same,PL,9 h,127.4 mg/dL
same,RALB,9 h,3 g/dL
same,TBIL,9 h,0.012 mg/dL
same,TC,9 h,69.2 mg/dL
same,TG,9 h,50.2 mg/dL
same,TP,9 h,5.3 g/dL
same,gamma-GTP,9 h,2.8 IU/L
same,TERMINAL_BW,24 h,208.4 g
same,APTT,24 h,21.5 s
same,Bas,24 h,0%
same,Eos,24 h,1%
same,Fbg,24 h,273.4 mg/dL
same,Hb,24 h,13.2 g/dL
same,Ht,24 h,38.4%
same,Lym,24 h,80.2%
same,MCH,24 h,21.4 pg
same,MCHC,24 h,34.5%
same,MCV,24 h,62.2 fL
same,Mono,24 h,3.2%
same,Neu,24 h,15%
same,PT,24 h,16.2 s
same,Plat,24 h,123.1 x10_4/uL
same,RBC,24 h,618 x10_4/ul
same,Ret,24 h,7.5%
same,WBC,24 h,81 x10_2/uL
same,KIDNEY_L,24 h,1 g
same,KIDNEY_R,24 h,1 g
same,KIDNEY_TOTAL,24 h,2 g
same,LIVER,24 h,9.8 g
same,A/G,24 h,1.4
same,ALP,24 h,1455.4 IU/L
same,ALT,24 h,44.6 IU/L
same,AST,24 h,78.4 IU/L
same,BUN,24 h,16.8 mg/dL
same,CRE,24 h,0.2 mg/dL
same,Ca,24 h,10.6 mg/dL
same,Cl,24 h,106.8 meq/L
same,DBIL,24 h,0.002 mg/dL
same,GLC,24 h,187.4 mg/dL
same,IP,24 h,6.9 mg/dL
same,K,24 h,4.5 meq/L
same,LDH,24 h,318.8 IU/L
same,Na,24 h,141.6 meq/L
same,PL,24 h,135.2 mg/dL
same,RALB,24 h,3.1 g/dL
same,TBIL,24 h,0.002 mg/dL
same,TC,24 h,65 mg/dL
same,TG,24 h,114.6 mg/dL
same,TP,24 h,5.4 g/dL
same,gamma-GTP,24 h,1.6 IU/L
